Laboratory results: patent US8840886B2, “Method of treating cancer with DLL4 antagonist and chemotherapeutic agent” (Regeneron Pharmaceuticals, Inc., priority 2009, dated 2014)

What was measured:
Format in all cases: in vivo, mouse
[1] = tested on: human HCT116 tumor cells (CRC); test: HCT116 colorectal xenograft tumor growth, REGN421 with 5-FU (Example 5)
Experimental: The effect of anti-Dll4 Ab (REGN421) in combination with 5-FU on tumor growth was evaluated on tumors implanted in humanized Dll4 SCID mice. Each mouse was implanted subcutaneously (sc) with 5×10^6 human HCT116 tumor cells (CRC). After the tumors were established in the mice (tumor size of ˜150 mm^3, 22 days after implantation), tumors were measured and randomized. The mice were then treated with hFc, REGN421, 5-FU or combination of REGN421 and 5-FU. A total of 30 mice were divided into 6 groups (n=5 per cohort). The first group was treated sc with hFc at 2 mg/kg; the second group was treated sc with REGN421 at 2 mg/kg; the third and fourth groups were treated ip with 5-FU at 15 and 25 mg/kg, respectively; the fifth group was treated sc with REGN421 at 2 mg/kg and ip with 5-FU at 15 mg/kg; and the sixth group was treated sc with REGN421 at 2 mg/kg and ip with 5-FU at 25 mg/kg. REGN421 was administered every 3-4 days starting on day 22 and mice received three doses total. 5-FU was administered every 3-4 days starting on day 22 and mice received three doses total.
(§1) To assess the effects of REGN421 and 5-FU as single agents or in combination, the changes in tumor size (volume) were measured, beginning three days before the initial REGN421 treatment, and then on the day of each agent treatment (days 22, 26, 29) and thereafter every 3-4 days until tumors reach ˜600 mm^3 in size. In vivo tumor size is calculated using the formula (length×width^2)/2 (FIG. 3 and Table 5).

[2] = tested on: human VM-Cub1 tumor cells (bladder carcinoma cells); test: VM-Cub1 bladder carcinoma xenograft tumor growth, REGN421 with cisplatin (Example 1); settings: for TGI: 4 doses, at day 32; for Euthanized: control cohort euthanized day 32; for TGD: time to 600 mm^3 vs control
Experimental: The effect of anti-Dll4 antibody (REGN421) in combination with cisplatin (platinol, cis-diamminedichloroplatinum) on tumor growth was evaluated on tumors implanted in Severe Combined Immunodeficiency (SCID) mice expressing a humanized Dll4 protein (humanized Dll4 SCID mice). The humanized Dll4 SCID mouse was made by replacing the entire extracellular domain of the mouse Dll4 gene with the corresponding extracellular region of the human Dll4 gene (7 kb) in embryonic stem (ES) cells. Homozygous hDll4 mice were generated and bred into SCID background.
Each mouse was implanted subcutaneously (sc) with 1×10^6 human VM-Cub1 tumor cells (bladder carcinoma cells) plus MATRIGEL™ (BD Biosciences, #354234). After the tumors were established in the mice (tumor size of 150-200 mm^3, approximately 14 days after implantation), tumors were measured, randomized and treated with hFc, REGN421, cisplatin, or combination of REGN421 and cisplatin. A total of 45 mice were divided into nine groups (n=5 per cohort). The first group was treated subcutaneously (sc) with hFc at 2 mg/kg; the second and third groups were treated sc with REGN421 at 0.5 and 2 mg/kg, respectively; the fourth and fifth groups were treated intraperitoneally (ip) with cisplatin at 0.5 and 2 mg/kg, respectively; the sixth group was treated sc with REGN421 at 0.5 mg/kg and ip with cisplatin at 0.5 mg/kg; the seventh group was treated sc with REGN421 at 0.5 mg/kg and ip with cisplatin at 2 mg/kg; the eighth group was treated sc with REGN421 at 2 mg/kg and ip with cisplatin at 0.5 mg/kg; and the ninth group was treated sc with REGN421 at 2 mg/kg and ip with cisplatin at 2 mg/kg. REGN421 was administered every 3-4 days starting on day 14 and mice received three doses total. Cisplatin was administered every 24 hours starting on day 14; mice received four doses total.
To assess the effects of REGN421 and cisplatin as single agents or in combination treatments, the changes in tumor size were recorded. Tumor growth was measured three days before the initial REGN421 treatment, on the day of each REGN421 treatment (days 14, 17 and 21) and thereafter every 3-4 days until tumors reached ˜600 mm^3 in size. In vivo tumor size was calculated using the formula (length×width^2)/2 (FIG. 1 and Table 1).
Tumor Growth Inhibition, TGI, was determined by calculating the difference in tumor size for treated (T) versus vehicle control (C) tumor at the day the control cohort was euthanized (i.e., at day 32); TGI=[1−(Tfinal−Tinitial)/(Cfinal−Cinitial)]×100.
Tumor growth delay, TGD, was assessed as the difference in days between treated (T) versus control (C) tumors when each cohort reached a specified tumor size. The predetermined tumor size for this experiment was 600 mm^3.

[3] = tested on: human A549 tumor cells (non-small cell lung cancer); test: A549 NSCLC xenograft tumor growth, REGN421 with cisplatin (Example 2)
Experimental: The effect of REGN421 in combination with cisplatin on tumor growth was evaluated on tumors implanted in humanized Dll4 SCID mice, as described above. Each mouse was implanted subcutaneously (sc) with 5×10^6 human A549 tumor cells (non-small cell lung cancer or “NSCLC”). After the tumors were established in the mice (tumor size of 100-150 mm^3, approximately 29 days after implantation), tumors were measured, randomized and treated with hFc, REGN421, cisplatin or combination of REGN421 and cisplatin. A total of 36 mice were divided into 6 groups (n=6 per cohort). The first group was treated sc with hFc at 2 mg/kg; the second group was treated sc with REGN421 at 2 mg/kg; the third and fourth groups were treated ip with cisplatin at 2.5 and 4.5 mg/kg, respectively; the fifth group was treated sc with REGN421 at 2 mg/kg and ip with cisplatin at 2.5 mg/kg; and the sixth group was treated sc with REGN421 at 2 mg/kg and ip with cisplatin at 4.5 mg/kg. REGN421 was administered every 3-4 days starting on day 29 and mice received three doses total. Cisplatin was administered every 24 hours starting on day 29 and mice received two doses total.
To assess the effects of REGN421 and cisplatin as single agents or in combination we measured tumor size (volume), beginning three days before the initial REGN421 treatment, on the day of each agent treatment (days 29, 30, 33, 36) and thereafter every 3-4 days until tumors reached ˜600 mm^3 in size. In vivo tumor size was calculated using the formula (length×width^2)/2.

[4] = tested on: human MDA-MB-231 breast tumor cells; test: MDA-MB-231 breast tumor growth in SCID mice, REGN577 with docetaxel (Example 4); settings: for reduction of tumor growth: at Day 63
Experimental: The effect of anti-Dll4 antibody in combination with docetaxel (TAXOTERE®, sanofi-aventis) on tumor growth was evaluated on tumors implanted in Severe Combined Immunodeficiency (SCID) mice. Each mouse was implanted ‘pseudo-orthotopically’ (subcutaneously into mammary gland #3) with 5×10^6 human MDA-MB-231 breast tumor cells with MATRIGEL™ (BD Biosciences lot #84540). After the tumors were established in the mice (tumor size of ˜150-200 mm^3, approximately 45 days after implantation), mice were treated with hFc, docetaxel, Dll4 antibody, or a combination of docetaxel plus Dll4 antibody. A total of 25 tumor-bearing […] mice were randomized into five groups (N=5 mice per group). The first group was treated subcutaneously with hFc (at 25 mg/kg) and intravenously (iv) with vehicle; the second group was treated with Dll4 antibody REGN577 sc at 5 mg/kg; the third group was treated with docetaxel iv at 4.5 mg/kg; the fourth group was treated with docetaxel iv at 6 mg/kg; the fifth group was treated with docetaxel iv at 6 mg/kg plus REGN577 sc at 5 mg/kg. Docetaxel and/or Dll4 antibody were administered on the same day. Animals were treated 2 times per week and received a total of 3 doses. Starting from the day of initial treatment, body weight and tumors were measured twice a week until the mice are euthanized. Mice were euthanized when tumors reached ˜600 mm^3 in size. Tumor size was calculated using the formula (length×width^2)/2.

[5] = tested on: rat C6 tumor cells (glioblastoma cells); test: C6 glioblastoma tumor growth in SCID mice, REGN577 with docetaxel (Example 3)
Experimental: The effect of anti-Dll4 antibody in combination with docetaxel (TAXOTERE®) on tumor growth was evaluated on tumors implanted in Severe Combined Immunodeficiency (SCID) mice. Each mouse was implanted subcutaneously (sc) with 1×10^6 rat C6 tumor cells (glioblastoma cells). After the tumors were established (tumor size of ˜100-150 mm^3, approximately 13 days after implantation), the mice were treated with hFc, docetaxel, Dll4 antibody, or a combination of docetaxel plus Dll4 antibody. Since these mice expressed mouse Dll4, the Dll4 Ab used in this experiment was prepared in-house, based on the published sequence (WO 2007/143689), and designated as REGN 577. […] A total of 30 tumor-bearing male mice were randomized into six groups (N=5). […] Starting from the day of initial treatment, body weight and tumors were measured twice a week until the mice were euthanized when tumors reached ˜600 mm^3 in size. Tumor size was calculated using the formula, (length×width^2)/2.

human HCT116 tumor cells = test: HCT116 xenograft tumor growth, REGN421 with irinotecan (Example 6)
Experimental: Each mouse was implanted subcutaneously (sc) with 5×10^6 human HCT116 tumor cells. After the tumors were established in the mice (tumor size of ˜150 mm^3, 15 days after implantation), tumors were measured and randomized. The mice were then treated with hFc, REGN421, irinotecan or combination of REGN421 and irinotecan. A total of 30 mice were divided into 6 groups (n=5 per cohort). The first group was treated sc with hFc at 2 mg/kg; the second group was treated sc with REGN421 at 2 mg/kg; the third and fourth groups were treated ip with irinotecan at 7.5 and 25 mg/kg, respectively; the fifth group was treated sc with REGN421 at 2 mg/kg and ip with irinotecan at 7.5 mg/kg; and the sixth group was treated sc with REGN421 at 2 mg/kg and ip with irinotecan at 25 mg/kg. REGN421 was administered every 3-4 days starting on day 15 and mice received three doses total. Irinotecan was administered every 3-4 days starting on day 15 and mice received three doses total.
as §1, with “irinotecan” for “5-FU”, “combination treatments,” for “combination,”, “are” for “were”, “starting” for “beginning”, “15, 19, 22)” for “22, 26, 29)”, “(length×width^2)/2.” for “(length×width^2)/2 (FIG. 3 and Table 5).”

[6] = docetaxel 4.5 mg/kg iv (13.5 mg/kg total dose)
[7] = docetaxel 6 mg/kg iv (18 mg/kg total dose)

Q: How did the TGD ([1]; 5-FU 15 mg/kg ip (45 mg/kg total dose)) turn out when O=c1[nH]cc(F)c(=O)[nH]1 [5-FU, 5-fluorouracil] was run?
A: Its TGD is 4 days.

Q: And the TGD ([1]; 5-FU 25 mg/kg ip (75 mg/kg total dose))?
A: Its TGD is 2 days.

Q: For N.N.[Cl][Pt][Cl] [Cisplatin, cis-diamminedichloroplatinum], which TGI ([2]; cisplatin 0.5 mg/kg/dose ip) is on record?
A: Its TGI is 60.7%.

Q: What about the TGI ([2]; cisplatin 0.5 mg/kg/dose ip, listed as cisplatin) of the same molecule?
A: Its TGI is 61%.

Q: What about the Euthanized ([2]; cisplatin 0.5 mg/kg/dose ip) of the same molecule?
A: Its Euthanized is 45 days.

Q: What about the TGD ([2]; cisplatin 0.5 mg/kg/dose ip) of the same molecule?
A: The TGD was 13 days.

Q: And the TGI ([2]; cisplatin 2 mg/kg/dose ip)?
A: Its TGI is 53.8%.

Q: What about the TGI ([2]; cisplatin 2 mg/kg/dose ip, listed as cisplatin) of the same molecule?
A: The TGI was 54%.

Q: And the Euthanized ([2]; cisplatin 2 mg/kg/dose ip)?
A: The Euthanized was 41 days.

Q: What about the TGD ([2]; cisplatin 2 mg/kg/dose ip) of the same molecule?
A: The TGD was 9 days.

Q: And the TGD ([3]; cisplatin 2.5 mg/kg ip (5 mg/kg total dose))?
A: Its TGD is 4 days.

Q: And the TGD ([3]; cisplatin 4.5 mg/kg ip (9 mg/kg total dose))?
A: The TGD was 11 days.

Q: CC(=O)O[C@@]12CO[C@@H]1C[C@H](O)[C@@]1(C)C(=O)[C@H](O)C3=C(C)[C@@H](OC(=O)[C@H](O)[C@@H](NC(=O)OC(C)(C)C)c4ccccc4)C[C@@](O)([C@@H](OC(=O)c4ccccc4)[C@H]21)C3(C)C [Docetaxel, docetaxel] was tested. Which TGD [4, 6] did it give?
A: The TGD was 4 days.

Q: What about the “reduction of tumor growth” value ([4]; docetaxel 4.5 mg/kg iv) of the same molecule?
A: The value was 37%.

Q: And the TGD [4, 7]?
A: Its TGD is 4 days.

Q: And the “reduction of tumor growth” value ([4]; docetaxel 6 mg/kg iv)?
A: Its value is 52%.

Q: And the TGD [5, 6]?
A: Its TGD is 6 days.

Q: And the TGD [5, 7]?
A: Its TGD is 7 days.

Q: For CCc1c2c(nc3ccc(OC(=O)N4CCC(N5CCCCC5)CC4)cc13)-c1cc3c(c(=O)n1C2)COC(=O)[C@]3(O)CC [Irinotecan, irinotecan], which TGD (human HCT116 tumor cells; irinotecan 7.5 mg/kg ip (22.5 mg/kg total dose)) is on record?
A: Its TGD is 8 days.

Q: What about the TGD (human HCT116 tumor cells; irinotecan 25 mg/kg ip (75 mg/kg total dose)) of the same molecule?
A: The TGD was 16 days.
